Data: US20210040073A1, “AZABICYCLO-SUBSTITUTED TRIAZOLE DERIVATIVE, PREPARATION METHOD THEREOF, AND APPLICATION OF SAME IN MEDICINE” (Jiangsu Hengrui Medicine Co., Ltd., priority 2016, published 2021)
Blank lines part the entries; values can stand above or below the compound they belong to.

Assays:
human OTR = target: T1, human OTR (Homo sapiens, UniProt P30559); assay: Inhibition activity on human OTR (Fluo-4 calcium assay, HEK293/human OTR stably transfected cells, oxytocin 3 nM); type: cell-based; settings: calcium signal
T1 construct: expressed in transfected cells
T1 sequence (P30559 1-389): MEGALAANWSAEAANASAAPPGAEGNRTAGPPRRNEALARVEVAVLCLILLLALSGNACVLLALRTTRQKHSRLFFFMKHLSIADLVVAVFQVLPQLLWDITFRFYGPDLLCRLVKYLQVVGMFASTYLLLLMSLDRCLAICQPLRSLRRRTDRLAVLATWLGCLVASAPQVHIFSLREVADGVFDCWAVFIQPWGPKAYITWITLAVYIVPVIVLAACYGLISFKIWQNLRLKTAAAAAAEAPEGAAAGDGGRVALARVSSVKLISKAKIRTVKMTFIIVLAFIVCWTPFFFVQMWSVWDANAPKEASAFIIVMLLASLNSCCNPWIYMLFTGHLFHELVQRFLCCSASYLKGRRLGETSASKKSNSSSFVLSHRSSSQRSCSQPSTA
Experimental: The inhibition effect of the compounds of the present invention on the activity of human OTR protein expressed in HEK293/human OTR stably transfected cells was determined by the following experimental method:
The pcDNA3.1-hOTR plasmid was transferred into HEK293 cells with the Lipofectamine® 3000 transfection reagent; G418 was added on the next day to screen, and monoclonal cell lines were selected.
HEK293/human OTR stably transfected cells were inoculated in a 96-well plate with an inoculation density of 25,000 cells/well one day in advance. On the next day, a loading buffer containing Fluo-4 dye was formulated using the reagents in the Fluo-4 NW calcium assay kit, and the culture medium was then removed; 100 μl of the loading buffer containing Fluo-4 dye were added to each well, and the plate was incubated at 37° C. for 30 minutes. After that, the plate was moved to room temperature and equilibrated for 10 minutes. The compounds were formulated into concentration gradients of 10^6, 10^5, 10^4, 10^3, 10^2 and 10^1 nM. 1 μl of the compounds in each concentration was added to each well, and the plate was incubated at room temperature for 10 minutes. 50 μl of oxytocin polypeptide (3 nM) were automatically added by the machine, and the values were immediately detected at 494/516 nM by the flexstation 3 microplate reader. IC50 values of the compounds were calculated by Graphpad prism software using fluorescence signals corresponding to different concentrations.
The inhibition activity of the compounds of the present invention on human OTR was determined by the above test, and the obtained IC50 values are shown in Table 1.

[1] = Pharmacokinetics assay in rats after intragastrical administration; settings: 2 mg/kg; for AUC / CL/F / MRT / Vd/F: plasma
Experimental: Rats were used as test animals. […] The pharmacokinetic behavior of the compounds of the present invention was studied and evaluated in rats.
After an overnight fast, SD rats were administered intragastrically the test compounds at an administration dosage of 2.0 mg/kg and an administration volume of 10.0 mL/kg.
0.2 mL of blood was taken from the orbital sinus before administration and at 0.5, 1.0, 2.0, 4.0, 6.0, 8.0, 11.0 and 24.0 hours after administration. The samples were stored in heparinized tubes, and centrifuged for 10 minutes at 4° C. at 3,500 rpm to separate the blood plasma. The plasma samples were stored at −20° C. The rats were fed 2 hours after administration.
The content of the test compounds in the plasma of rats after intragastrical administration of the test compounds at different concentrations was determined: 25 μL of rat plasma at each time after administration was taken, added with 50 μL of the internal standard solution of camptothecin (100 ng/mL) and 200 μL of acetonitrile, vortex-mixed for 5 minutes, and centrifuged for 10 minutes (4000 rpm). 1.0 μL of the supernatant was taken from the plasma samples for LC/MS/MS analysis.

[2] = both, Sprague-Dawley, rat, in vivo, po

Structure (SMILES): CCOCc1nnc(N2C[C@@H]3C[C@]3(c3ccc(F)cc3Cl)C2)n1-c1ccc(OC)nc1 [Example 6, (1S,5R)-1-(2-Chloro-4-fluorophenyl)-3-(5-(ethoxymethyl)-4-(6-methoxypyridin-3-yl)-4H-1,2,4-triazol-3-yl)-3-azabicyclo[3.1.0]hexane]
IC50 (human OTR): 4.3 nM | Plasma concentration Cmax ([1]; SD rats, intragastrical): 135 ± 80.0 ng/mL | half-life [1, 2]: 3.47 ± 1.72 h | AUC ([1]; both, Sprague-Dawley, rat, po): 1060 ± 982 ng·h/mL | CL/F ([1]; both, Sprague-Dawley, rat, po): 68.9 ± 58.8 mL/min/kg | MRT ([1]; both, Sprague-Dawley, rat, po): 6.7 ± 0.73 h | Vd/F ([1]; both, Sprague-Dawley, rat, po): 18 ± 17.4 L/kg

Structure (SMILES): COCc1nnc(N2C[C@@H]3C[C@]3(c3ccc(F)cc3Cl)C2)n1-c1ccc(OC)nc1 [Example 9, (1S,5R)-1-(2-Chloro-4-fluorophenyl)-3-(5-(methoxymethyl)-4-(6-methoxypyridin-3-yl)-4H-1,2,4-triazol-3-yl)-3-azabicyclo[3.1.0]hexane]
IC50 (human OTR): 14 nM | Half-life T½ ([1]; SD rats, intragastrical): 3.98 ± 3.55 h | Cmax [1, 2]: 350 ± 142 ng/mL | AUC ([1]; both, Sprague-Dawley, rat, po): 2040 ± 1020 ng·h/mL | CL/F ([1]; both, Sprague-Dawley, rat, po): 20.2 ± 10.3 mL/min/kg | MRT ([1]; both, Sprague-Dawley, rat, po): 6.23 ± 4.94 h | Vd/F ([1]; both, Sprague-Dawley, rat, po): 6 ± 4.44 L/kg

The next lines start with the values.

IC50 (human OTR): 44 nM
Structure (SMILES): COc1ccc(-n2c(COCCF)nnc2N2C[C@@H]3C[C@]3(c3ccc(F)cc3Cl)C2)cn1 [Example 1, (1S,5R)-1-(2-Chloro-4-fluorophenyl)-3-(5-((2-fluoroethoxy)methyl)-4-(6-methoxypyridin-3-yl)-4H-1,2,4-triazol-3-yl)-3-azabicyclo[3.1.0]hexane]

IC50 (human OTR): 29 nM
Structure (SMILES): COCc1nnc(N2C[C@@H]3C[C@]3(c3cccc(F)c3Cl)C2)n1-c1ccc(OC)nc1 [Example 4, (1S,5R)-1-(2-Chloro-3-fluorophenyl)-3-(5-(methoxymethyl)-4-(6-methoxypyridin-3-yl)-4H-1,2,4-triazol-3-yl)-3-azabicyclo[3.1.0]hexane]

IC50 (human OTR): 30 nM
Structure (SMILES): COc1ccc(-n2c(N3C[C@@H]4C[C@]4(c4ccc(F)cc4Cl)C3)nnc2C(F)(F)F)cn1 [Example 12, (1S,5R)-1-(2-Chloro-4-fluorophenyl)-3-(4-(6-methoxypyridin-3-yl)-5-(trifluoromethyl)-4H-1,2,4-triazol-3-yl)-3-azabicyclo[3.1.0]hexane]
